Data reported in PubChem BioAssay AID1259407 (Chemical Carcinogenesis Research Information System (CCRIS), 2018).
Activity calls are given as the source filed them. The rule behind the calls is not given here.

Test system: CCRIS mutagenicity, Ames/micronucleus/aberration tests
Experiment: CCRIS mutagenicity studies
Text: The CCRIS database contains chemical records with carcinogenicity, mutagenicity, tumor promotion, and tumor inhibition test results. It was developed by the National Cancer Institute (NCI). Data are derived from studies cited in primary journals, current awareness tools, NCI reports, and other sources. Test results have been reviewed by experts in carcinogenesis and mutagenesis.
CCRIS provides historical information from the years 1985 - 2011. It is no longer updated.
This is an archive assay for CCRIS mutagenicity studies.

[1] = Test System: AMES SALMONELLA TYPHIMURIUM, Strain/Indicator: TA98, Metabolic Activation: NONE, Method: STANDARD PLATE
[2] = Test System: AMES SALMONELLA TYPHIMURIUM, Strain/Indicator: TA98, Metabolic Activation: RAT, LIVER, S-9, AROCLOR 1254, Method: STANDARD PLATE
[3] = Test System: AMES SALMONELLA TYPHIMURIUM, Strain/Indicator: TA100, Metabolic Activation: NONE, Method: STANDARD PLATE
[4] = Test System: AMES SALMONELLA TYPHIMURIUM, Strain/Indicator: TA100, Metabolic Activation: RAT, LIVER, S-9, AROCLOR 1254, Method: STANDARD PLATE
[5] = Test System: AMES SALMONELLA TYPHIMURIUM, Strain/Indicator: TA97, Metabolic Activation: NONE, Method: STANDARD PLATE
[6] = Test System: AMES SALMONELLA TYPHIMURIUM, Strain/Indicator: TA97, Metabolic Activation: RAT, LIVER, S-9, AROCLOR 1254, Method: STANDARD PLATE
[7] = Test System: AMES SALMONELLA TYPHIMURIUM, Strain/Indicator: TA100, Metabolic Activation: NONE, Method: PREINCUBATION

Question: How did the mutagenic call [1] turn out when `Cc1cc(C)c2ccc3ccccc3c2c1` was run?
Answer: inactive; negative

Question: What about the mutagenic call [2] of the same compound?
Answer: active; positive

Question: And the mutagenic call [3]?
Answer: inactive; negative

Question: And the mutagenic call [4]?
Answer: active; positive

Question: Which mutagenic call (Test System: AMES SALMONELLA TYPHIMURIUM, Strain/Indicator: TA98(NR), Metabolic Activation: NONE, Method: STANDARD PLATE) does the source give for `COC(=O)c1cc2c([nH]c3ccc([N+](=O)[O-])cc32)c(-c2ccccc2)n1` here?
Answer: inactive; negative

Question: What about the mutagenic call (Test System: AMES SALMONELLA TYPHIMURIUM, Strain/Indicator: TA98(NR), Metabolic Activation: RAT, LIVER, S-9, AROCLOR 1254, Method: STANDARD PLATE) of the same compound?
Answer: active; positive

Question: Which mutagenic call [1] does the source give for `O=c1[nH]cc2ccc3cccc4ccc1c2c34` here?
Answer: inactive; negative

Question: And the mutagenic call [2]?
Answer: inactive; negative

Question: And the mutagenic call [3]?
Answer: inactive; negative

Question: What about the mutagenic call [4] of the same compound?
Answer: inactive; negative

Question: What does the source list for `CCBr`?
Answer: mutagenic call (End Point: IN VITRO CHROMOSOMAL ABERRATIONS, Test System: CHO CELLS, Metabolic Activation: NONE): inactive; negative; mutagenic call (End Point: IN VITRO CHROMOSOMAL ABERRATIONS, Test System: CHO CELLS, Metabolic Activation: RAT, LIVER, S-9, AROCLOR 1254): inactive; negative; mutagenic call (End Point: In vitro Micronucleus, Test System: Chinese Hamster Ovary (CHO-WBL) cells, Metabolic Activation: None): inactive; negative; mutagenic call [5]: active; positive; mutagenic call [6]: active; positive; mutagenic call (Test System: AMES SALMONELLA TYPHIMURIUM, Strain/Indicator: TA98, Metabolic Activation: HAMSTER, LIVER, S-9, AROCLOR 1254, Method: DESICCATOR): inactive; negative; mutagenic call (Test System: AMES SALMONELLA TYPHIMURIUM, Strain/Indicator: TA98, Metabolic Activation: NONE, Method: DESICCATOR): inactive; negative; mutagenic call [1]: inactive; negative; mutagenic call (Test System: AMES SALMONELLA TYPHIMURIUM, Strain/Indicator: TA98, Metabolic Activation: RAT, LIVER, S-9, AROCLOR 1254, Method: DESICCATOR): inactive; negative; mutagenic call [2]: active; positive; mutagenic call (Test System: AMES SALMONELLA TYPHIMURIUM, Strain/Indicator: TA100, Metabolic Activation: HAMSTER, LIVER, S-9, AROCLOR 1254, Method: DESICCATOR): active; positive; mutagenic call (Test System: AMES SALMONELLA TYPHIMURIUM, Strain/Indicator: TA100, Metabolic Activation: NONE, Method: DESICCATOR): active; positive; mutagenic call [3]: inactive; negative; mutagenic call (Test System: AMES SALMONELLA TYPHIMURIUM, Strain/Indicator: TA100, Metabolic Activation: RAT, LIVER, S-9, AROCLOR 1254, Method: DESICCATOR): active; positive; mutagenic call [4]: active; positive; mutagenic call (Test System: AMES SALMONELLA TYPHIMURIUM, Strain/Indicator: TA104, Metabolic Activation: NONE, Method: STANDARD PLATE): inactive; negative; mutagenic call (Test System: AMES SALMONELLA TYPHIMURIUM, Strain/Indicator: TA104, Metabolic Activation: RAT, LIVER, S-9, AROCLOR 1254, Method: STANDARD PLATE): active; positive

Question: With `O=[N+]([O-])CCO` as the compound, how does the mutagenic call (Test System: AMES SALMONELLA TYPHIMURIUM, Strain/Indicator: TA97, Metabolic Activation: HAMSTER, LIVER, S-9, AROCLOR 1254 (5 OR 30%), Method: PREINCUBATION) read?
Answer: inactive; negative

Question: What about the mutagenic call (Test System: AMES SALMONELLA TYPHIMURIUM, Strain/Indicator: TA97, Metabolic Activation: HAMSTER, LIVER, S-9, AROCLOR 1254 (10%), Method: PREINCUBATION) of the same compound?
Answer: inactive; negative

Question: And the mutagenic call (Test System: AMES SALMONELLA TYPHIMURIUM, Strain/Indicator: TA97, Metabolic Activation: NONE, Method: PREINCUBATION)?
Answer: inactive; negative

Question: And the mutagenic call (Test System: AMES SALMONELLA TYPHIMURIUM, Strain/Indicator: TA97, Metabolic Activation: RAT, LIVER, S-9, AROCLOR 1254 (5 OR 30%), Method: PREINCUBATION)?
Answer: inactive; negative

Question: And the mutagenic call (Test System: AMES SALMONELLA TYPHIMURIUM, Strain/Indicator: TA97, Metabolic Activation: RAT, LIVER, S-9, AROCLOR 1254 (10%), Method: PREINCUBATION)?
Answer: inactive; negative

Question: And the mutagenic call (Test System: AMES SALMONELLA TYPHIMURIUM, Strain/Indicator: TA98, Metabolic Activation: HAMSTER, LIVER, S-9, AROCLOR 1254 (10%), Method: PREINCUBATION)?
Answer: inactive; negative

Question: What about the mutagenic call (Test System: AMES SALMONELLA TYPHIMURIUM, Strain/Indicator: TA98, Metabolic Activation: RAT, LIVER, S-9, AROCLOR 1254 (10%), Method: PREINCUBATION) of the same compound?
Answer: inactive; negative

Question: And the mutagenic call (Test System: AMES SALMONELLA TYPHIMURIUM, Strain/Indicator: TA100, Metabolic Activation: HAMSTER, LIVER, S-9, AROCLOR 1254 (10%), Method: PREINCUBATION)?
Answer: inactive; negative

Question: And the mutagenic call (Test System: AMES SALMONELLA TYPHIMURIUM, Strain/Indicator: TA100, Metabolic Activation: HAMSTER, LIVER, S-9, AROCLOR 1254 (30%), Method: PREINCUBATION)?
Answer: inactive; negative

Question: And the mutagenic call [7]?
Answer: inactive; negative

Question: What about the mutagenic call (Test System: AMES SALMONELLA TYPHIMURIUM, Strain/Indicator: TA100, Metabolic Activation: RAT, LIVER, S-9, AROCLOR 1254 (10%), Method: PREINCUBATION) of the same compound?
Answer: inactive; negative

Question: What about the mutagenic call (Test System: AMES SALMONELLA TYPHIMURIUM, Strain/Indicator: TA100, Metabolic Activation: RAT, LIVER, S-9, AROCLOR 1254 (30%), Method: PREINCUBATION) of the same compound?
Answer: inactive; negative

Question: What about the mutagenic call (Test System: AMES SALMONELLA TYPHIMURIUM, Strain/Indicator: TA1535, Metabolic Activation: HAMSTER, LIVER, S-9, AROCLOR 1254 (10%), Method: PREINCUBATION) of the same compound?
Answer: inactive; negative

Question: What about the mutagenic call (Test System: AMES SALMONELLA TYPHIMURIUM, Strain/Indicator: TA1535, Metabolic Activation: HAMSTER, LIVER, S-9, AROCLOR 1254 (30%), Method: PREINCUBATION) of the same compound?
Answer: inactive; negative

Question: And the mutagenic call (Test System: AMES SALMONELLA TYPHIMURIUM, Strain/Indicator: TA1535, Metabolic Activation: NONE, Method: PREINCUBATION)?
Answer: inactive; negative

Question: And the mutagenic call (Test System: AMES SALMONELLA TYPHIMURIUM, Strain/Indicator: TA1535, Metabolic Activation: RAT, LIVER, S-9, AROCLOR 1254 (10%), Method: PREINCUBATION)?
Answer: inactive; negative

Question: And the mutagenic call (Test System: AMES SALMONELLA TYPHIMURIUM, Strain/Indicator: TA1535, Metabolic Activation: RAT, LIVER, S-9, AROCLOR 1254 (30%), Method: PREINCUBATION)?
Answer: inactive; negative

Question: And the mutagenic call (Test System: AMES SALMONELLA TYPHIMURIUM, Strain/Indicator: TA1537, Metabolic Activation: HAMSTER, LIVER, S-9, AROCLOR 1254 (10%), Method: PREINCUBATION)?
Answer: inactive; negative

Question: What about the mutagenic call (Test System: AMES SALMONELLA TYPHIMURIUM, Strain/Indicator: TA1537, Metabolic Activation: NONE, Method: PREINCUBATION) of the same compound?
Answer: inactive; negative

Question: What about the mutagenic call (Test System: AMES SALMONELLA TYPHIMURIUM, Strain/Indicator: TA1537, Metabolic Activation: RAT, LIVER, S-9, AROCLOR 1254 (10%), Method: PREINCUBATION) of the same compound?
Answer: inactive; negative

Question: And the mutagenic call (Test System: AMES SALMONELLA TYPHIMURIUM, Strain/Indicator: TA1538, Metabolic Activation: HAMSTER, LIVER, S-9, AROCLOR 1254 (30%), Method: PREINCUBATION)?
Answer: active; positive

Question: And the mutagenic call (Test System: AMES SALMONELLA TYPHIMURIUM, Strain/Indicator: TA1538, Metabolic Activation: NONE, Method: PREINCUBATION)?
Answer: active; positive

Question: And the mutagenic call (Test System: AMES SALMONELLA TYPHIMURIUM, Strain/Indicator: TA1538, Metabolic Activation: RAT, LIVER, S-9, AROCLOR 1254 (30%), Method: PREINCUBATION)?
Answer: active; positive

Question: How did the mutagenic call (Test System: AMES SALMONELLA TYPHIMURIUM, Strain/Indicator: TA97A, Metabolic Activation: NONE, Method: PREINCUBATION) turn out when `Cc1cccc2nc3c(ccc4ccccc43)cc12` was run?
Answer: active; positive

Question: What about the mutagenic call (Test System: AMES SALMONELLA TYPHIMURIUM, Strain/Indicator: TA98, Metabolic Activation: NONE, Method: PREINCUBATION) of the same compound?
Answer: inactive; negative

Question: And the mutagenic call [7]?
Answer: inactive; negative

Question: And the mutagenic call (Test System: AMES SALMONELLA TYPHIMURIUM, Strain/Indicator: TA102, Metabolic Activation: NONE, Method: PREINCUBATION)?
Answer: active; positive

Question: What does the source list for `COC(=O)Nc1nc2ccc(Sc3ccccc3)cc2[nH]1`?
Answer: mutagenic call [5]: inactive; negative; mutagenic call [6]: inactive; negative; mutagenic call [1]: inactive; negative; mutagenic call [2]: inactive; negative; mutagenic call [3]: inactive; negative; mutagenic call [4]: inactive; negative; mutagenic call (Test System: AMES SALMONELLA TYPHIMURIUM, Strain/Indicator: TA102, Metabolic Activation: NONE, Method: STANDARD PLATE): inactive; negative; mutagenic call (Test System: AMES SALMONELLA TYPHIMURIUM, Strain/Indicator: TA102, Metabolic Activation: RAT, LIVER, S-9, AROCLOR 1254, Method: STANDARD PLATE): inactive; negative
